Assay results as given in patent US20210115521A1, “METHOD FOR INHIBITING TUMOR PROGRESSION OR DETERMINING TUMOR PROGRESSION STATE IN GASTRIC CANCER” (National Tsing Hua University, priority 2019, published 2021).
Residues, ends and D or L forms follow the SMILES beside them. *: point of attachment. Cbz = O=C(OCc1ccccc1)*

How the values were obtained:
[1] = system: MKN28 cells; assay: Zebrafish xenotransplantation migration assay, MKN28; format: in vivo; conditions: MKN28-injected embryos, immersion in 1 μM at 1 dpi, read at 3 dpi
Description: The Tg (fli1: EGFP) zebrafish transgenic strain was purchased from ZIRC (Oregon, USA). […] At two-day post-fertilization, the embryos were dechorionated and subsequently anesthetized with tricaine (0.04 mg/ml). MKN28 or MKN45 cells were labeled with either CFSE or CM-DiI. Two hundred labeled cells (4.6 nl) were injected into the yolk of two-day old embryo using a Nanoject II Auto-Nanoliter Injector (Drummond Science, Broomall, Pa., USA). Later, individual recipients were examined for fluorescent cells 1 and 3 day-post injection by a fluorescence microscopy (Leica).
Next, to evaluate migration behavior using a zebrafish xenotransplantation assay, an efficient in vivo system that utilizes a small number of cells (100 to 200 cells) to accurately monitor cell migratory activity within a couple of days. Cells (pLKO vs. shPHF8) were labeled with carboxyfluorescein succinimidyl ester (CFSE), an amine-reactive green fluorescent dye, and injected into zebrafish embryos. Migration activity was monitored at 1-day postinjection (1 dpi) and 3 dpi by fluorescence microscopy.

[2] = system: MKN45 cells; assay: Zebrafish xenotransplantation migration assay, MKN45; format: in vivo; conditions: MKN45-injected embryos, immersion in 1 μM at 1 dpi, read at 3 dpi
Description: The Tg (fli1: EGFP) zebrafish transgenic strain was purchased from ZIRC (Oregon, USA). The zebrafish embryos, larvae, and adult fish were maintained in the Taiwan Zebrafish Core Facility @ NHRI. At two-day post-fertilization, the embryos were dechorionated and subsequently anesthetized with tricaine (0.04 mg/ml). MKN28 or MKN45 cells were labeled with either CFSE or CM-DiI. Two hundred labeled cells (4.6 nl) were injected into the yolk of two-day old embryo using a Nanoject II Auto-Nanoliter Injector (Drummond Science, Broomall, Pa., USA). Later, individual recipients were examined for fluorescent cells 1 and 3 day-post injection by a fluorescence microscopy (Leica). […]
Next, to evaluate migration behavior using a zebrafish xenotransplantation assay, an efficient in vivo system that utilizes a small number of cells (100 to 200 cells) to accurately monitor cell migratory activity within a couple of days. […] Migration activity was monitored at 1-day postinjection (1 dpi) and 3 dpi by fluorescence microscopy.
Next, to corroborate this finding using a zebrafish xeno-transplantation model. Cells labeled with Vybrant CM-DiI (CM-Dil) (red fluorescence dye) were injected into the embryos of Tg (fli1: EGFP) (fish with green fluorescence in blood vessels), followed by immersion in solutions containing 1 μM m Midostaurin or Bosutinib (a sublethal dose) at 1 dpi. […]

[3] = system: PTEN; assay: PTEN protein level by Western blotting in MKN28; format: cell-based, human; conditions: MG132-treated pLKO MKN28 cells
Text: FIG. 15. Pharmacological inhibition of PHF8-PKCα-Src-PTEN blocks GC progression in vitro and in vivo. […] Data from FIGS. 15B and 15D are presented as the average of three replicates ±SD **P<0.01 (two-tailed Student's t test). Zebrafish xeno-transplantation assays using Mido or Bosu. […] Cyan, blood vessel. […] Total number of embryos used in vehicle, Mido, and Bosu is shown in the bracket. Data were obtained from three independent studies. **P<0.01 (two-tailed Student's t test).
(§1) For immunoblotting assay, PBS-washed cells collected by scraping were directly lysed in RIPA buffer supplemented with protease inhibitor (Santa Cruz) and PhosSTOP (Sigma). Appropriate amounts of protein were separated on SDS-PAGE and then electrotransferred to PVDF membrane (PALL, Protein Washington, N.Y., USA). After the transfer, each membrane was incubated with appropriate primary antibody overnight at 4° C. and then probed with secondary antibodies conjugated with fluorescence. Odyssey Infrared Imaging System (LI-COR Biosciences, Lincoln, Nebr., USA) was utilized to detect the level of fluorescence. For immunoprecipitation assay, cell pellets were lysed in lysis buffer [50 mM Tris-HCl (pH 7.4), 150 mM NaCl, 0.5% NP40)] containing protease inhibitor (Santa Cruz). […]

[4] = system: PTEN; assay: PTEN protein level by Western blotting in MKN45; format: cell-based, human; conditions: MG132-treated pLKO MKN45 cells
Description: FIG. 16. Pharmacological inhibition of PHF8-PKCα-Src-PTEN blocks GC progression in vitro and in vivo. […] Data form FIGS. 16B and 16D are presented as the average of 3 replicates ±SD. *p<0.05, **p<0.01 (two-tailed Student's t test). Zebrafish xenotransplantation assays using Mido or Bosu. Fluorescence microscopic analysis was conducted at 1 dpi and 3 dpi. […] Cyan, blood vessel. Scale bar, 100 μm. […] Total number of embryos used in vehicle, Mido, Bosu is shown in the bracket. Data were obtained from 3 independent studies. *p<0.05 (two-tailed Student's t test).
as §1

Row | SMILES | embryos with migration behavior (dissemination and invasion) [1] [%] | embryos with migration behavior (metastatic activity) [2] [%] | PTEN protein level with MG132 treatment [3] | PTEN protein level with MG132 treatment [4]
1 | COc1cc(Nc2c(C#N)cnc3cc(OCCCN4CCN(C)CC4)c(OC)cc23)c(Cl)cc1Cl [Bosutinib] | 11.95 | 18.08 |  | 
2 | CO[C@@H]1[C@H](N(C)C(=O)c2ccccc2)C[C@H]2O[C@]1(C)n1c3ccccc3c3c4c(c5c6ccccc6n2c5c31)C(=O)NC4 [Midostaurin] | 11 | 13.88 |  | 
3 | CC(C)C[C@@H](C=O)NC(=O)[C@H](CC(C)C)NC(=O)[C@H](CC(C)C)NC(=O)OCc1ccccc1 [MG132] (Cbz-Leu-Leu-Leu-aldehyde) |  |  | rescued | rescued
